Measurements from ChEMBL document CHEMBL3885861, “Open TG-GATES”.

Species: Rattus norvegicus
Assay: Open TG-GATES - Regimen: Single
Type: toxicity, organism-based, Sprague-Dawley
Parameters: regimen Single, gender Male, age 6 weeks
Details: in vivo, po, 300 mg/kg, route gavage, dose level High; for APTT / Bas / Eos / Fbg / Hb / Ht / Lym / MCH / MCHC / MCV / Mono / Neu / PT / Plat / RBC / Ret / WBC: tissue Blood; for KIDNEY_L / KIDNEY_R / KIDNEY_TOTAL: tissue Kidney; for LIVER: tissue Liver; for A/G / ALP / ALT / AST / BUN / CRE / Ca / Cl / DBIL / GLC / IP / K / LDH / Na / PL / RALB / TBIL / TC / TG / TP / gamma-GTP: tissue Plasma

ClC(Cl)(Cl)Cl [CARBON TETRACHLORIDE]
TERMINAL_BW (3 h): 206.7 g
APTT (3 h): 18.3 s
Bas (3 h): 0%
Eos (3 h): 1%
Fbg (3 h): 242 mg/dL
Hb (3 h): 13 g/dL
Ht (3 h): 37.2%
Lym (3 h): 74.4%
MCH (3 h): 21.8 pg
MCHC (3 h): 34.9%
MCV (3 h): 62.4 fL
Mono (3 h): 2.2%
Neu (3 h): 21.8%
PT (3 h): 12.5 s
Plat (3 h): 125.5 x10_4/uL
RBC (3 h): 595.8 x10_4/ul
Ret (3 h): 8.9%
WBC (3 h): 76.7 x10_2/uL
KIDNEY_L (3 h): 0.9 g
KIDNEY_R (3 h): 0.9 g
KIDNEY_TOTAL (3 h): 1.8 g
LIVER (3 h): 9.4 g
A/G (3 h): 1.6
ALP (3 h): 909.4 IU/L
ALT (3 h): 39.4 IU/L
AST (3 h): 67.8 IU/L
BUN (3 h): 12.2 mg/dL
CRE (3 h): 0.4 mg/dL
Ca (3 h): 10.5 mg/dL
Cl (3 h): 104 meq/L
DBIL (3 h): 0.1 mg/dL
GLC (3 h): 187.4 mg/dL
IP (3 h): 10.1 mg/dL
K (3 h): 3.8 meq/L
LDH (3 h): 201.4 IU/L
Na (3 h): 140 meq/L
PL (3 h): 156.4 mg/dL
RALB (3 h): 3.3 g/dL
TBIL (3 h): 0.2 mg/dL
TC (3 h): 79.2 mg/dL
TG (3 h): 90.8 mg/dL
TP (3 h): 5.4 g/dL
gamma-GTP (3 h): 1.2 IU/L
TERMINAL_BW (6 h): 208.2 g
APTT (6 h): 18.5 s
Bas (6 h): 0%
Eos (6 h): 0.8%
Fbg (6 h): 231.4 mg/dL
Hb (6 h): 13.1 g/dL
Ht (6 h): 37.9%
Lym (6 h): 77.2%
MCH (6 h): 21.3 pg
MCHC (6 h): 34.6%
MCV (6 h): 61.7 fL
Mono (6 h): 3%
Neu (6 h): 18.4%
PT (6 h): 13 s
Plat (6 h): 125.2 x10_4/uL
RBC (6 h): 614.2 x10_4/ul
Ret (6 h): 8.6%
WBC (6 h): 96.7 x10_2/uL
KIDNEY_L (6 h): 0.9 g
KIDNEY_R (6 h): 0.9 g
KIDNEY_TOTAL (6 h): 1.8 g
LIVER (6 h): 9.1 g
A/G (6 h): 1.7
ALP (6 h): 830.8 IU/L
ALT (6 h): 29.8 IU/L
AST (6 h): 65.2 IU/L
BUN (6 h): 10.4 mg/dL
CRE (6 h): 0.4 mg/dL
Ca (6 h): 10.5 mg/dL
Cl (6 h): 103.2 meq/L
DBIL (6 h): 0.086 mg/dL
GLC (6 h): 201.8 mg/dL
IP (6 h): 10.1 mg/dL
K (6 h): 4 meq/L
LDH (6 h): 205.8 IU/L
Na (6 h): 139.6 meq/L
PL (6 h): 150.4 mg/dL
RALB (6 h): 3.4 g/dL
TBIL (6 h): 0.1 mg/dL
TC (6 h): 73 mg/dL
TG (6 h): 68.2 mg/dL
TP (6 h): 5.5 g/dL
gamma-GTP (6 h): 1.2 IU/L
TERMINAL_BW (9 h): 203.7 g
APTT (9 h): 19.1 s
Bas (9 h): 0%
Eos (9 h): 1%
Fbg (9 h): 232.6 mg/dL
Hb (9 h): 13.3 g/dL
Ht (9 h): 37.9%
Lym (9 h): 80.4%
MCH (9 h): 21.5 pg
MCHC (9 h): 35%
MCV (9 h): 61.7 fL
Mono (9 h): 2.8%
Neu (9 h): 16%
PT (9 h): 12.5 s
Plat (9 h): 137.8 x10_4/uL
RBC (9 h): 615.2 x10_4/ul
Ret (9 h): 8.7%
WBC (9 h): 72.4 x10_2/uL
KIDNEY_L (9 h): 0.9 g
KIDNEY_R (9 h): 0.9 g
KIDNEY_TOTAL (9 h): 1.8 g
LIVER (9 h): 8.8 g
A/G (9 h): 1.5
ALP (9 h): 987.6 IU/L
ALT (9 h): 28.4 IU/L
AST (9 h): 63.2 IU/L
BUN (9 h): 9.4 mg/dL
CRE (9 h): 0.4 mg/dL
Ca (9 h): 10.5 mg/dL
Cl (9 h): 103 meq/L
DBIL (9 h): 0.1 mg/dL
GLC (9 h): 193 mg/dL
IP (9 h): 10.4 mg/dL
K (9 h): 3.9 meq/L
LDH (9 h): 200.2 IU/L
Na (9 h): 139.4 meq/L
PL (9 h): 150.8 mg/dL
RALB (9 h): 3.3 g/dL
TBIL (9 h): 0.2 mg/dL
TC (9 h): 71 mg/dL
TG (9 h): 80.2 mg/dL
TP (9 h): 5.5 g/dL
gamma-GTP (9 h): 1.2 IU/L
TERMINAL_BW (24 h): 212.9 g
APTT (24 h): 19.3 s
Bas (24 h): 0%
Eos (24 h): 1%
Fbg (24 h): 225.4 mg/dL
Hb (24 h): 13.5 g/dL
Ht (24 h): 38.6%
Lym (24 h): 79%
MCH (24 h): 22.4 pg
MCHC (24 h): 34.8%
MCV (24 h): 64.4 fL
Mono (24 h): 3.8%
Neu (24 h): 15.6%
PT (24 h): 12.6 s
Plat (24 h): 131.5 x10_4/uL
RBC (24 h): 599.6 x10_4/ul
Ret (24 h): 7.8%
WBC (24 h): 110.3 x10_2/uL
KIDNEY_L (24 h): 1 g
KIDNEY_R (24 h): 1 g
KIDNEY_TOTAL (24 h): 2 g
LIVER (24 h): 10.2 g
A/G (24 h): 1.6
ALP (24 h): 1310.2 IU/L
ALT (24 h): 42.2 IU/L
AST (24 h): 75 IU/L
BUN (24 h): 16.4 mg/dL
CRE (24 h): 0.4 mg/dL
Ca (24 h): 10.8 mg/dL
Cl (24 h): 103.8 meq/L
DBIL (24 h): 0.08 mg/dL
GLC (24 h): 183.8 mg/dL
IP (24 h): 8 mg/dL
K (24 h): 3.9 meq/L
LDH (24 h): 192.6 IU/L
Na (24 h): 140 meq/L
PL (24 h): 139.6 mg/dL
RALB (24 h): 3.5 g/dL
TBIL (24 h): 0.1 mg/dL
TC (24 h): 61.4 mg/dL
TG (24 h): 69.6 mg/dL
TP (24 h): 5.6 g/dL
gamma-GTP (24 h): 1 IU/L
